The subject of assay [1] is IL-2 production in Jurkat cells. Kind of assay: PHA/PMA-induced IL-2 production in Jurkat cells (ELISA of culture medium). Format: cell-based, human. The settings on record: 10 μM, 24 h. On the procedure: Activation of CB2 is known to have anti-inflammatory effects. There are some studies reporting that CB2 agonists decrease cytokine production in immune cells. We also reported that the cannabinoid receptor agonist CP55,940 and ABK5 inhibit cytokine production in the human T cell lines Jurkat and MOLT-4 [24]. Since ABK5-1 and 5-2 were confirmed to be CB2-subtype selective agonists, we were interested to determine whether these compounds also have anti-inflammatory effects. Note, although ABK5-6 had marginally better binding affinity to CB2, it bound to CB1 very, very weakly (i.e., micromolar range). Therefore ABK5-6 was not selected for further evaluations. […] To test if these mRNA changes are reflected in the protein levels of cytokines, the IL-2 and TNF-α concentration in the cell culture medium were measured by ELISA. […]
Figure 4 Effect of ABK5-1 and ABK5-2 on phytohemagglutinin (PHA)/phorbol 12-myristate 13-acetate (PMA)-induced cytokine production in T cells. […] IL-2 and TNF-α mRNA levels were determined by real-time PCR (RT-PCR) after ABK5-1 treatment and (A) 3 h and (B) 24 h of PHA/PMA (phytohemagglutinin/phorbol 12-myristate 13-acetate) stimulation. […] IL-2 and TNF-α mRNA were also examined after ABK5-2 treatment and (E) 3 h and (F) 24 h of stimulation, and protein levels of (G) IL-2 and (H) TNF-α were measured after 24 h stimulation. […]

For the next assay, the target named is T1, CB2 (Homo sapiens, UniProt P34972).
T1 construct: expressed in transfected cells; host or cells: HEK293T cells, calcium phosphate transfection, membrane preparation
Kind of assay: [35S]GTPγS binding assay (G-protein coupling), CB2 containing HEK293T cell membrane. The settings on record: stimulation of [35S]GTPγS binding; mean ± S.D. Format: biochemical. The procedure: We also examined if the compounds can induce G-protein coupling and act as CB2 agonists. Three compounds, ABK5-1, ABK5-2, and ABK5-6, were subjected to [^35S]GTPγS binding assays. Increasing concentrations, from 1 nM to 10 μM of the test compounds, were incubated with CB2 containing HEK293T cell membrane and [^35S]GTPγS, which binds to Gi/o in the membrane upon CB2 activation and G-protein coupling. All three compounds stimulated dose-dependent increases of specific [^35S]GTPγS binding (Figure 3).
In the experiment, 1 × 10^6 HEK293T cells were seeded in a 10-cm cell culture dish and cultured for 24 h. Cells were transfected with CB1 or CB2 using the calcium phosphate method. Approximately one day after transfection, cells were harvested and centrifuged at 4 °C for 5 min at 500× g. The pellet was washed with phosphate buffered saline (PBS) twice and resuspended in PBS containing 1% protease-inhibitor cocktail (Sigma-Aldrich, St. Louis, MO, USA) consisting of 104 mM 4-(2-aminoethyl) benzene sulfonyl fluoride hydrochloride (AEBSF), 80 μM apronitin, 4 mM bestatin, 1.64 mM E-64, 2 mM leupeptin, 1.5 mM pepstatin A. Then the cells were subjected to nitrogen cavitation under 750 psi for 5 min using a Parr cell disruption bomb. The lysate was centrifuged at 500× g for 10 min at 4 °C and the supernatant was spun at 116,000× g for 45 min at 4 °C. The pellet, consisting of the cell membrane expressing CB1 or CB2, was resuspended in TME buffer solution (25 mM Tris-HCl, 5 mM MgCl2, and 1 mM EDTA, pH 7.4) with 7% (w/v) sucrose/TME buffer. The concentration of the membrane protein was determined by the Bradford assay (Bradford, 1976).
GTPγS binding assay buffer ([…], pH 7.4, 3 mM MgCl2, 0.2 mM EGTA, and 100 mM NaCl) membrane protein, 1 nM to 10 μM of the test compounds, 0.1 nM [^35S] GTPγS (1250 Ci/mmol; PerkinElmer Life Sciences, Waltham, MA, USA), 0.1% fatty acid free BSA (w/v), 10 μM guanosine diphosphate (GDP) and GTPγS was incubated for 1 h at 30 °C with shaking. […] A Beckman Coulter 6500 liquid scintillation counter was used to measure the radioactivity of the samples. […]
On the technique in general: GTPγS resists hydrolysis and so accumulates on activated G proteins.

The source of these data is publication PMC8073686, “Characterization of Subtype Selective Cannabinoid CB2 Receptor Agonists as Potential Anti-Inflammatory Agents” (Pharmaceuticals, 2021).

T1 sequence (P34972 whole entry): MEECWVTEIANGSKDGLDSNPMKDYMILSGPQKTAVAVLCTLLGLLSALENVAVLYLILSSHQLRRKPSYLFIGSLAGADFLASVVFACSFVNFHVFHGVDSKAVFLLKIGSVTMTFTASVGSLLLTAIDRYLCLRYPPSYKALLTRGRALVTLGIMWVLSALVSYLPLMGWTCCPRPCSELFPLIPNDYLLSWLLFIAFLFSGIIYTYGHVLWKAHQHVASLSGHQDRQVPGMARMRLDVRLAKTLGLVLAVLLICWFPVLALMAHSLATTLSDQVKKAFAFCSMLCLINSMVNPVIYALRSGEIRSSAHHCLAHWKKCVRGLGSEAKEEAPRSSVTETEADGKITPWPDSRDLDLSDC

The EC50 is the midpoint of the concentration-response curve. Lower therefore signals greater potency. As for `CCOC(=O)c1ccccc1NC(=O)CN(c1c(C)cccc1C)S(=O)(=O)c1ccccc1` [ABK5-2], in assay [1], the “decrease of IL-2 production (protein, ELISA)” value was “about 42%”. On CB2, the EC50 was 24 ± 25 nM.
For `CCOC(=O)c1ccccc1NC(=O)CN(c1ccc(C)cc1C)S(=O)(=O)c1ccccc1` [ABK5-1] the same measures were “about 42%” and 11 ± 14 nM.
